Data published in patent US12532889B2, “Herbicidal compositions comprising glufosinate” (BASF SE, priority 2023, dated 2026).
Several values for one entry are separate records, joined by “and”; a condition that tells them apart may be missing. Equal values may be shown once.

Legend:
Experiment in all cases: Post-emergence application in field trials (Example A)
Type in all cases: in vivo
[1] = test system: AMASP (Amaranthus spinosus); details: Table 5.5; AMASP growth stage 72; A-1 25, B-6 252 g ai/ha; 28 DAT; water 400 l/ha
Procedure: (§1) In the examples below, using the method of S. R. Colby (1967) “Calculating synergistic and antagonistic responses of herbicide combinations”, Weeds 15, p. 22ff., the value E, which is expected if the activity of the individual active compounds is only additive, was calculated:
(§2) [formula] • where • X=percent activity using active herbicide A at an application rate a; • Y=percent activity using active herbicide B (e.g. glufosinate) at an application rate b; • E=expected activity (in %) by A+B at application rates a+b.
(§3) If the value found experimentally is higher than the value E calculated according to Colby, a synergistic effect is present.
(§4) On field test sites, natural weed infestation or seeded weeds were treated post-emergence of the weeds.
(§5) In the field trials, the weeds were treated as indicated below.
(§6) In the following experiments, the herbicidal activity for the individual herbicidal compositions (solo and mixture applications) was assessed at the indicated days after treatment (DAT). The assessments for the damage on undesired weeds caused by the composition was carried out using a scale from 0 to 100%, compared to the untreated control plants. Here, 0 means no damage and 100 means complete destruction of the plants.

[2] = test system: COMDI (Commelina diffusa); details: Table 5.3; COMDI growth stage 76-77; A-1 25, B-6 252 g ai/ha; 28 DAT; water 300 l/ha
Procedure: as §1, §2, §3, §4, §5, §6

[3] = test system: CYPKH (Cyperus kyllingia var. humilis); details: Table 5.4; CYPKH growth stage 76-77, height 13-14 cm; A-1 25, B-6 252 g ai/ha; 28 DAT; water 400 l/ha
Procedure: as §1, §2, §3, §4, §5, §6

[4] = test system: DIGSA (Digitaria sanguinalis); details: for % Herbicidal activity: growth stage 22
Procedure: as §1, §2, §3, §4, §5, §6

[5] = test system: ECHCG (Echinocloa crus-galli)
Procedure: as §1, §2, §3, §4, §5, §6

GLXMA (Glycine max) = details: 21 DAT; B-6 252 g ai/ha; growth stage 13; height 5-10 cm
Procedure: as §1, §2, §3, §4, §5, §6

[6] = test system: HORVW (Hordeum vulgare (winter barley))
Procedure: as §1, §2, §3, §4, §5, §6

[7] = test system: LOLMU (Lolium multiflorum); details: for % Herbicidal activity: B-6 252 g ai/ha, growth stage 22-25, height 20-25 cm; for % herbicidal activity: Table 6.1, LOLMU growth stage 22-25, height 20-25 cm, 200 l/ha water
Procedure: as §1, §2, §3, §4, §5, §6

[8] = test system: PASSC (Paspalum scrobiculatum); details: Table 5.2, A-1 25, B-6 252 g ai/ha, 21 DAT, water 450 l/ha
Procedure: as §1, §2, §3, §4, §5, §6

ZEAMX (Zea mays) = test system: ZEAMX (Zea mays)
Procedure: as §1, §2, §3, §4, §5, §6

[9] = 21 DAT, B-6 150 g ai/ha, growth stage 23-30, height 15-20 cm
[10] = 21 DAT, B-6 252 g ai/ha, growth stage 23-30, height 15-20 cm
[11] = 21 DAT, B-6 252 g ai/ha, growth stage 23-29, height 20-25 cm
[12] = 42 DAT, B-6 252 g ai/ha, growth stage 15-16, height 27-33 cm

Q: CP(=O)(O)CC[C@H](N)C(=O)O.N [B-6, glufosinate-P-ammonium] was tested. Which “% herbicidal activity” value [1] did it give?
A: 84%

Q: What about the “% herbicidal activity” value [2] of the same molecule?
A: 39%

Q: What about the “% herbicidal activity” value [3] of the same molecule?
A: 48%

Q: And the “% Herbicidal activity” value ([4]; 7 DAT, B-6 252 g ai/ha, height 10-15 cm)?
A: 75%

Q: And the “% herbicidal activity” value ([4]; 21 DAT, B-6 252 g ai/ha, growth stage 21-22, height 10-15 cm)?
A: 20%

Q: What about the “% Herbicidal activity” value ([4]; 21 DAT, B-6 252 g ai/ha, height 10-15 cm) of the same molecule?
A: 80%

Q: And the “% Herbicidal activity” value ([4]; 42 DAT, B-6 252 g ai/ha, height 10-15 cm)?
A: 50%

Q: What about the “% herbicidal activity” value ([4]; Table 6.1, DIGSA growth stage 21-22, height 10-15 cm, A-1 18, B-6 252 g ai/ha, 7 DAT, 200 l/ha water) of the same molecule?
A: 30%

Q: What about the “% Herbicidal activity” value ([5]; 7 DAT, B-6 252 g ai/ha, growth stage 23-30, height 15-20 cm) of the same molecule?
A: 60%

Q: And the “% Herbicidal activity” value [5, 9]?
A: 40%

Q: And the “% herbicidal activity” value [5, 9]?
A: 40%

Q: And the “% Herbicidal activity” value [5, 10]?
A: 70%

Q: And the “% herbicidal activity” value [5, 10]?
A: 70%

Q: And the “% Herbicidal activity” value ([5]; 28 DAT, B-6 252 g ai/ha, growth stage 23-30, height 15-20 cm)?
A: 70% and 60%

Q: What about the “% herbicidal activity” value ([5]; Table 6.1, ECHCG growth stage 23-30, height 15-20 cm, A-1 12.5, B-6 150 g ai/ha, 7 DAT, 200 l/ha water) of the same molecule?
A: 50%

Q: And the “% herbicidal activity” value ([5]; Table 6.1, ECHCG growth stage 23-30, height 15-20 cm, A-1 12.5, B-6 252 g ai/ha, 7 DAT, 200 l/ha water)?
A: 60%

Q: What about the “% herbicidal activity” value ([5]; Table 6.1, ECHCG growth stage 23-30, height 15-20 cm, A-1 18, B-6 150 g ai/ha, 7 DAT, 200 l/ha water) of the same molecule?
A: 50%

Q: What about the “% herbicidal activity” value ([5]; Table 6.1, ECHCG growth stage 23-30, height 15-20 cm, A-1 18, B-6 252 g ai/ha, 7 DAT, 200 l/ha water) of the same molecule?
A: 60%

Q: And the “% herbicidal activity” value (GLXMA (Glycine max))?
A: 70%

Q: And the “% Herbicidal activity” value ([6]; 7 DAT, B-6 150 g ai/ha, growth stage 23-29, height 20-25 cm)?
A: 0%

Q: What about the “% Herbicidal activity” value ([6]; 7 DAT, B-6 252 g ai/ha, growth stage 23-29, height 20-25 cm) of the same molecule?
A: 50% and 30%

Q: What about the “% Herbicidal activity” value ([6]; 21 DAT, B-6 150 g ai/ha, growth stage 23-29, height 20-25 cm) of the same molecule?
A: 0%

Q: And the “% Herbicidal activity” value [6, 11]?
A: 70%

Q: What about the “% herbicidal activity” value [6, 11] of the same molecule?
A: 30% and 40%

Q: What about the “% herbicidal activity” value ([6]; Table 6.1, HORVW growth stage 23-29, height 20-25 cm, A-1 12.5, B-6 150 g ai/ha, 7 DAT, 200 l/ha water) of the same molecule?
A: 0%

Q: And the “% herbicidal activity” value ([6]; Table 6.1, HORVW growth stage 23-29, height 20-25 cm, A-1 12.5, B-6 252 g ai/ha, 7 DAT, 200 l/ha water)?
A: 50%

Q: What about the “% herbicidal activity” value ([6]; Table 6.1, HORVW growth stage 23-29, height 20-25 cm, A-1 18, B-6 150 g ai/ha, 7 DAT, 200 l/ha water) of the same molecule?
A: 0%

Q: And the “% herbicidal activity” value ([6]; Table 6.1, HORVW growth stage 23-29, height 20-25 cm, A-1 18, B-6 252 g ai/ha, 7 DAT, 200 l/ha water)?
A: 40%

Q: What about the “% Herbicidal activity” value ([7]; 7 DAT) of the same molecule?
A: 60%

Q: What about the “% Herbicidal activity” value ([7]; 28 DAT) of the same molecule?
A: 40%

Q: And the “% herbicidal activity” value ([7]; A-1 12.5, B-6 252 g ai/ha, 7 DAT)?
A: 60%

Q: What about the “% herbicidal activity” value ([7]; A-1 18, B-6 252 g ai/ha, 7 DAT) of the same molecule?
A: 60%

Q: And the “% herbicidal activity” value [8]?
A: 27%

Q: What about the “% Herbicidal activity” value (ZEAMX (Zea mays); 21 DAT, B-6 252 g ai/ha, growth stage 15-16, height 27-33 cm) of the same molecule?
A: 65%

Q: What about the “% herbicidal activity” value (ZEAMX (Zea mays); 21 DAT, B-6 252 g ai/ha, growth stage 15-16, height 50-60 cm) of the same molecule?
A: 30%

Q: And the “% Herbicidal activity” value (ZEAMX (Zea mays); 28 DAT, B-6 252 g ai/ha, growth stage 15-16, height 50-60 cm)?
A: 75%

Q: And the “% Herbicidal activity” value (ZEAMX (Zea mays); [12])?
A: 45% and 50%

Q: And the “% herbicidal activity” value (ZEAMX (Zea mays); [12])?
A: 45%

Q: And the “% herbicidal activity” value (ZEAMX (Zea mays); Table 6.1, ZEAMX growth stage 15-16, height 50-60 cm, A-1 18, B-6 252 g ai/ha, 7 DAT, 200 l/ha water)?
A: 65%
